Measurements from ChEMBL document CHEMBL4052776, “Discovery of 3-morpholino-imidazole[1,5-a]pyrazine BTK inhibitors for rheumatoid arthritis” (Bioorg Med Chem Lett, 2017).

Experiments:
[1] = target: T1, Tyrosine-protein kinase BTK (Homo sapiens, UniProt Q06187); assay: Inhibition of recombinant full-length His6-tagged BTK (unknown origin) expressed in baculovirus infected Sf9 cells using biotinylated A5 peptide as substrate preincubated for 60 mins followed by substrate addition measured after 120 mins by LANCE TR-FRET assay
T1 sequence (Q06187 whole entry): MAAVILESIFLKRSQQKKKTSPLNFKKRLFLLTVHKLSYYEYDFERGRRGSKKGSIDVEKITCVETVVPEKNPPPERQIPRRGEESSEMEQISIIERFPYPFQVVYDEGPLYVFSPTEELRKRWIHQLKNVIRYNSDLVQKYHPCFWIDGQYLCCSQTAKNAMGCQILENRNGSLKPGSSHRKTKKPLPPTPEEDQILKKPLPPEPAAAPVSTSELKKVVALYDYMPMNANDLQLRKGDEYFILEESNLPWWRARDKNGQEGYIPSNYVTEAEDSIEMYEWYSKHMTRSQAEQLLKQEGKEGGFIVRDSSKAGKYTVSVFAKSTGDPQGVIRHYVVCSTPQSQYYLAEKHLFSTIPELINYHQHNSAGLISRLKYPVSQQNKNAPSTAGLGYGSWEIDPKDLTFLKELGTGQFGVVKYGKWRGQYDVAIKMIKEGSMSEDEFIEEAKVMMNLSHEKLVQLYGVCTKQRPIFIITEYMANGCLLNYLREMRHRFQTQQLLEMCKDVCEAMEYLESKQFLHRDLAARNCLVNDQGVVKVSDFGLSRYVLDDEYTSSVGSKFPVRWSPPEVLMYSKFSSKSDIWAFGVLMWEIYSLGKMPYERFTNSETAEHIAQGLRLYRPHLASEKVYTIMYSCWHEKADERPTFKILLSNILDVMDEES

[2] = target: T1, Tyrosine-protein kinase BTK; assay: Inhibition of BTK in human PBMC assessed as reduction in anti-IgM-induced MIP1beta
[3] = target: Voltage-gated inwardly rectifying potassium channel KCNH2 (Homo sapiens, UniProt Q12809); assay: Inhibition of human ERG by [35S]-MK499 displacement or iKr channel assay
Chain of Voltage-gated inwardly rectifying potassium channel KCNH2 (Q12809 whole entry): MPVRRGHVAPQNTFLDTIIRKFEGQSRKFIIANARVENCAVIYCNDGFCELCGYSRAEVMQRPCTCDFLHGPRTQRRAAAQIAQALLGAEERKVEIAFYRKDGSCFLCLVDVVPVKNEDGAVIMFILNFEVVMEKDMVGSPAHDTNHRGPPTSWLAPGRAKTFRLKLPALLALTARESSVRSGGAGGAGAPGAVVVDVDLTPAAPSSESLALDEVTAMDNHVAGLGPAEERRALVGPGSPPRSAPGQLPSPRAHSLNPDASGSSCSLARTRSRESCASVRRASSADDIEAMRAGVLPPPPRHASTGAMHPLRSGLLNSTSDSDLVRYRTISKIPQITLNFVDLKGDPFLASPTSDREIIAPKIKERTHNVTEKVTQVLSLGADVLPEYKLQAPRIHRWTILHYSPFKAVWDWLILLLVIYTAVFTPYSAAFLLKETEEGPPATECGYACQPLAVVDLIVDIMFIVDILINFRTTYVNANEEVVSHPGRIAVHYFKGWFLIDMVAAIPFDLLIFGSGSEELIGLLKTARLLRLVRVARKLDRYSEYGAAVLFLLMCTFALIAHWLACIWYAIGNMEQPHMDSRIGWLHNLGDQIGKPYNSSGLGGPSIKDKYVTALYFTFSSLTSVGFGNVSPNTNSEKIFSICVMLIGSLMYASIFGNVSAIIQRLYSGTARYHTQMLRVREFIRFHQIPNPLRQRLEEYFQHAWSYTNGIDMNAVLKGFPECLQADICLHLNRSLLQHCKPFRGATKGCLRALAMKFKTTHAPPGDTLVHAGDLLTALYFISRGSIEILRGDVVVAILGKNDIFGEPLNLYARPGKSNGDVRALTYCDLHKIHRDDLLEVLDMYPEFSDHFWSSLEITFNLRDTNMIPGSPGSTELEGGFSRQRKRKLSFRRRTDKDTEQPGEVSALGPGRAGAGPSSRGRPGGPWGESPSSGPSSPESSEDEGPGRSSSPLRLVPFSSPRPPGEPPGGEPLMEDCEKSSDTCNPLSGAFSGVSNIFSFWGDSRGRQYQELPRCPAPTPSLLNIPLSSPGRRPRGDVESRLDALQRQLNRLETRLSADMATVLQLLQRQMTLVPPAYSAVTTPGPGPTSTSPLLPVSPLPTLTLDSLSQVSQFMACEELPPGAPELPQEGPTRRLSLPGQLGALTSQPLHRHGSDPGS

[4] = target: Tyrosine-protein kinase Blk (Homo sapiens, UniProt P51451); assay: Inhibition of BLK (unknown origin)
Chain of Tyrosine-protein kinase Blk (P51451 whole entry): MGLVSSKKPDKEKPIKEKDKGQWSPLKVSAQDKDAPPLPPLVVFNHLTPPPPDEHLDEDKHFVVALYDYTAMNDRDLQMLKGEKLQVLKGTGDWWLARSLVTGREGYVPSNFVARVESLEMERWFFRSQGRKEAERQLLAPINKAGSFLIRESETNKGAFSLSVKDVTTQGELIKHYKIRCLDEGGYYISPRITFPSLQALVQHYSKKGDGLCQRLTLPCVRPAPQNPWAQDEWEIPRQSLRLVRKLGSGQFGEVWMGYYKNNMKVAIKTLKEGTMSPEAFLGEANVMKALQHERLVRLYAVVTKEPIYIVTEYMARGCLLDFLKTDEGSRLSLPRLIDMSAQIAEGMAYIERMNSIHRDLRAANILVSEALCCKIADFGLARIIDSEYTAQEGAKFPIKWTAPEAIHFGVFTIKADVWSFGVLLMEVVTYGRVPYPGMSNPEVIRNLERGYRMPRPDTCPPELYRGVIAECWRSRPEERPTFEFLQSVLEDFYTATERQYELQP

Homo sapiens [5] = organism: Homo sapiens; assay: Selectivity ratio of IC50 for BLK (unknown origin) to IC50 for BTK (unknown origin)
[6] = target: T2, Cytoplasmic tyrosine-protein kinase BMX (Homo sapiens, UniProt P51813); assay: Inhibition of BMX (unknown origin)
T2 sequence (P51813 whole entry): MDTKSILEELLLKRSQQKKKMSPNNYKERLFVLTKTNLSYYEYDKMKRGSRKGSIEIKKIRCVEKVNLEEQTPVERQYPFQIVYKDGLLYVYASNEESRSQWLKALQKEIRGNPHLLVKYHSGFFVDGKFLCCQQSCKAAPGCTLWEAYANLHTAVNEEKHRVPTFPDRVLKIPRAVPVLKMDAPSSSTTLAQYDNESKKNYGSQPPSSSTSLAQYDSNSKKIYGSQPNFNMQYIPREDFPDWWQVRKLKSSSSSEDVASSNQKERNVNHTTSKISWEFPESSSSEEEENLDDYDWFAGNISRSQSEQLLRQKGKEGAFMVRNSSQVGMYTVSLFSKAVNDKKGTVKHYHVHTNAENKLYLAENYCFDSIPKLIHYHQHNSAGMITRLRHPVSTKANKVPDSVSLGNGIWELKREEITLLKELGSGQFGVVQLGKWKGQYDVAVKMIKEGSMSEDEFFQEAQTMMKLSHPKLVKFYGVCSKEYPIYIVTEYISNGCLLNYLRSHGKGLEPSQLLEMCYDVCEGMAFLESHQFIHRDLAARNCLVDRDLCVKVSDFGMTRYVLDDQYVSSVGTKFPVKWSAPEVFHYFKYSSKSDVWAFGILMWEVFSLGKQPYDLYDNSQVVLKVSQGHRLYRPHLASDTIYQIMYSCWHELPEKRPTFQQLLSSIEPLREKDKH

Homo sapiens [7] = organism: Homo sapiens; assay: Selectivity ratio of IC50 for BMX (unknown origin) to IC50 for BTK (unknown origin)
Homo sapiens [8] = organism: Homo sapiens; assay: Selectivity ratio of IC50 for CSK (unknown origin) to IC50 for BTK (unknown origin)
[9] = target: Receptor tyrosine-protein kinase erbB-4 (Homo sapiens, UniProt Q15303); assay: Inhibition of ERBB4 (unknown origin)
Homo sapiens [10] = organism: Homo sapiens; assay: Selectivity ratio of IC50 for ERBB4 (unknown origin) to IC50 for BTK (unknown origin)
[11] = target: Tyrosine-protein kinase Fgr (Homo sapiens, UniProt P09769); assay: Inhibition of FGR (unknown origin)
Chain of Tyrosine-protein kinase Fgr (P09769 whole entry): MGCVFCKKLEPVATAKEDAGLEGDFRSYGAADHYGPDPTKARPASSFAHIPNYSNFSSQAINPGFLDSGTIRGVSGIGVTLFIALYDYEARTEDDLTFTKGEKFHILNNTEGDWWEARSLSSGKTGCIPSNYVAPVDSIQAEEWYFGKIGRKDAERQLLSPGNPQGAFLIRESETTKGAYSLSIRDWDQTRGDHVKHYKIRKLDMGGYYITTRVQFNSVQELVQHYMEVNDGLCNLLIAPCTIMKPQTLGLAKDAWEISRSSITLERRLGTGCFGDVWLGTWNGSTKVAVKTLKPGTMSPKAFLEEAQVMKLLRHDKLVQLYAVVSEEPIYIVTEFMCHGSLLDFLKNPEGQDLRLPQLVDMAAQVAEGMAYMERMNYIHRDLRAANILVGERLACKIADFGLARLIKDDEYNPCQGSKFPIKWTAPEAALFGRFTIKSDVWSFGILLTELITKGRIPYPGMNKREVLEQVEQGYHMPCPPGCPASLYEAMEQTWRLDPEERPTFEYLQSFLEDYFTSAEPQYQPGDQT

Homo sapiens [12] = organism: Homo sapiens; assay: Selectivity ratio of IC50 for FRK (unknown origin) to IC50 for BTK (unknown origin)
[13] = target: Tyrosine-protein kinase Fyn (Homo sapiens, UniProt P06241); assay: Inhibition of FYN (unknown origin)
Chain of Tyrosine-protein kinase Fyn (P06241 whole entry): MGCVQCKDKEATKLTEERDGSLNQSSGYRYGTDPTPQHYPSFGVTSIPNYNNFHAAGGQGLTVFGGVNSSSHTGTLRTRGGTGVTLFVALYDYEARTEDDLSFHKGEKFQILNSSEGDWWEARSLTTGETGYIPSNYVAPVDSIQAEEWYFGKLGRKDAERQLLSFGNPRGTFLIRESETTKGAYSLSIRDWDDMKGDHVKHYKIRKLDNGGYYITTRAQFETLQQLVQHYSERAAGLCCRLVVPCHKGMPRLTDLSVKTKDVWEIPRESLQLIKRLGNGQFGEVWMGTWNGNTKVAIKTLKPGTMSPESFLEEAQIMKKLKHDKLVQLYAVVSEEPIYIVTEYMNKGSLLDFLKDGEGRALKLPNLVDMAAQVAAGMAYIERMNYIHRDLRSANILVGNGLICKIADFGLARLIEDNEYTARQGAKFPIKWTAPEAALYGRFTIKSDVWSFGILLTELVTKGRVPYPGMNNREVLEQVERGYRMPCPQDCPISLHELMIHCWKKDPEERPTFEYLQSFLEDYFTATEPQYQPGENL

Homo sapiens [14] = organism: Homo sapiens; assay: Selectivity ratio of IC50 for FYN (unknown origin) to IC50 for BTK (unknown origin)
Homo sapiens [15] = organism: Homo sapiens; assay: Selectivity ratio of IC50 for LCK (unknown origin) to IC50 for BTK (unknown origin)
[16] = target: Tyrosine-protein kinase Lyn (Homo sapiens, UniProt P07948); assay: Inhibition of LYNB (unknown origin)
Homo sapiens [17] = organism: Homo sapiens; assay: Selectivity ratio of IC50 for LYNB (unknown origin) to IC50 for BTK (unknown origin)
[18] = target: Protein-tyrosine kinase 6 (Homo sapiens, UniProt Q13882); assay: Inhibition of PTK6 (unknown origin)
Chain of Protein-tyrosine kinase 6 (Q13882 whole entry): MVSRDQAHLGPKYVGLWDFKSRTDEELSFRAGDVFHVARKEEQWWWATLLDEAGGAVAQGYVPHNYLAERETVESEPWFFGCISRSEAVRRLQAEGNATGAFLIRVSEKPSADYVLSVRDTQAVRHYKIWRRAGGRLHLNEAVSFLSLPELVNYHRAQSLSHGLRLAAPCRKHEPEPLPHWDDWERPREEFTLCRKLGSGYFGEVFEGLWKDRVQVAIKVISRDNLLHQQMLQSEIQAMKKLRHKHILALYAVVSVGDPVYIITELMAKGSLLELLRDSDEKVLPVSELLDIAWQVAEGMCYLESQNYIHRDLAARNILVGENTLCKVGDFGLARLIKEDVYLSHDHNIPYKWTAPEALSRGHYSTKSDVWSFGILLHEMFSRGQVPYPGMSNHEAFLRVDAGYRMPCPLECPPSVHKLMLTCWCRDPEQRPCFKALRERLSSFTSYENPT

Homo sapiens [19] = organism: Homo sapiens; assay: Selectivity ratio of IC50 for PTK6 (unknown origin) to IC50 for BTK (unknown origin)
[20] = target: Proto-oncogene tyrosine-protein kinase Src (Homo sapiens, UniProt P12931); assay: Inhibition of SRC (unknown origin)
Chain of Proto-oncogene tyrosine-protein kinase Src (P12931 2-536 limits assumed): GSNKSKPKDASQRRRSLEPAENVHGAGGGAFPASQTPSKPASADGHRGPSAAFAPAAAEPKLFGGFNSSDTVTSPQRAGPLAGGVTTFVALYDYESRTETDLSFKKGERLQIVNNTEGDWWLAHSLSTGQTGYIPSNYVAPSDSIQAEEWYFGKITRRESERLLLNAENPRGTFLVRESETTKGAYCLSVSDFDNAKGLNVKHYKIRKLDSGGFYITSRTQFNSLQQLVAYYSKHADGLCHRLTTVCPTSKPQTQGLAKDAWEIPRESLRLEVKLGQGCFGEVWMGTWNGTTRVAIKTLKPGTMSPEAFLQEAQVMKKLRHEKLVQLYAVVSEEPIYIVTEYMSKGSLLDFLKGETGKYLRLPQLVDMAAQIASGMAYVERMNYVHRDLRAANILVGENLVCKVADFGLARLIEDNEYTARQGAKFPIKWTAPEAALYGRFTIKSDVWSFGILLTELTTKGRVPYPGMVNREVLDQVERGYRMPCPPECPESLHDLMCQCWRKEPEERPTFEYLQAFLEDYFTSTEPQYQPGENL

Homo sapiens [21] = organism: Homo sapiens; assay: Selectivity ratio of IC50 for SRC (unknown origin) to IC50 for BTK (unknown origin)
Homo sapiens [22] = organism: Homo sapiens; assay: Selectivity ratio of IC50 for SRMS (unknown origin) to IC50 for BTK (unknown origin)
[23] = target: T3, Tyrosine-protein kinase Tec (Homo sapiens, UniProt P42680); assay: Inhibition of TEC (unknown origin)
T3 sequence (P42680 whole entry): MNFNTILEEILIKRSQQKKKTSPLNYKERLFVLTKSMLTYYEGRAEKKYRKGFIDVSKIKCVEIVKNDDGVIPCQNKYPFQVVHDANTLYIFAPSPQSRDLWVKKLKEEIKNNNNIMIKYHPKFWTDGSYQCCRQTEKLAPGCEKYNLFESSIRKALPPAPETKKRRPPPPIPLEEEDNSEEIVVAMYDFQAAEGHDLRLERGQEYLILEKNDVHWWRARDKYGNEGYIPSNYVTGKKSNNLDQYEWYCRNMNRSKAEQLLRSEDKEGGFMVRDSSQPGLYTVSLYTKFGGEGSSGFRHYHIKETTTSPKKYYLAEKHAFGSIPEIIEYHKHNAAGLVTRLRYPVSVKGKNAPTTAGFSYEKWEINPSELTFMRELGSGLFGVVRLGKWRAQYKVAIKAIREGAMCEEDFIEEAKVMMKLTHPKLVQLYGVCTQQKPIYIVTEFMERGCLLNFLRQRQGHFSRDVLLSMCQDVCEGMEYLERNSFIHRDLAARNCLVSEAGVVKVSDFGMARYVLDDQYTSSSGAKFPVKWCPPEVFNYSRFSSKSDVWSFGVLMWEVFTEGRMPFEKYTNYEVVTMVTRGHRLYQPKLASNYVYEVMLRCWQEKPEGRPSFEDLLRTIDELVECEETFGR

Homo sapiens [24] = organism: Homo sapiens; assay: Selectivity ratio of IC50 for TEC (unknown origin) to IC50 for BTK (unknown origin)
Homo sapiens [25] = organism: Homo sapiens; assay: Selectivity ratio of IC50 for TXK (unknown origin) to IC50 for BTK (unknown origin)
[26] = target: Tyrosine-protein kinase Yes (Homo sapiens, UniProt P07947); assay: Inhibition of YES1 (unknown origin)
Chain of Tyrosine-protein kinase Yes (P07947 whole entry): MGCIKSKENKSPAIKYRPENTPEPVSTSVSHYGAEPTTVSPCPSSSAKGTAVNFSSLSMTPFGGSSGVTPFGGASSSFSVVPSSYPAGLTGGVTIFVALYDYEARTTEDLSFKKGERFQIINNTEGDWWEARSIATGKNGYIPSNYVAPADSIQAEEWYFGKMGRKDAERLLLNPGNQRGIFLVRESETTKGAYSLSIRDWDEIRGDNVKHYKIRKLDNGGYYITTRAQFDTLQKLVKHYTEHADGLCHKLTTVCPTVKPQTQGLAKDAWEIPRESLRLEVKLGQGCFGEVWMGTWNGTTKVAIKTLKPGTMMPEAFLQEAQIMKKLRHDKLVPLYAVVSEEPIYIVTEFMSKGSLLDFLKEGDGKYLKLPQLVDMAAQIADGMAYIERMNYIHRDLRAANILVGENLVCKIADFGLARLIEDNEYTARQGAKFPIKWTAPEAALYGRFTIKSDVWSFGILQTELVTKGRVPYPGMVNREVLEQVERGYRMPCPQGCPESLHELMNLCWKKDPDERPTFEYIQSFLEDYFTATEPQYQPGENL

Homo sapiens [27] = organism: Homo sapiens; assay: Selectivity ratio of IC50 for YES1 (unknown origin) to IC50 for BTK (unknown origin)
[28] = Total clearance in rat plasma at 10 mg/kg; type: ADME, organism-based
[29] = Half life in rat at 10 mg/kg; type: ADME, organism-based; details: in vivo
[30] = Oral bioavailability in rat at 10 mg/kg; type: ADME, organism-based; details: in vivo
[31] = Total clearance in dog plasma at 2 mg/kg; type: ADME, organism-based, Canis lupus familiaris
[32] = Half life in dog at 2 mg/kg; type: ADME, organism-based, Canis lupus familiaris; details: in vivo
[33] = Oral bioavailability in dog at 2 mg/kg; type: ADME, organism-based, Canis lupus familiaris; details: in vivo

`CC(C)C(=O)N1CCO[C@@H](c2nc(-c3ccc(C(=O)Nc4cc(C(F)(F)F)ccn4)cc3F)c3c(N)nccn23)C1` gave an IC50 [1] of 0.4 to 0.44 nM, an IC50 [2] of 26 nM and an IC50 [3] of 15000 nM. The IC50 [4] was 280 nM, the Ratio IC50 (Homo sapiens [5]) was 636 and the IC50 [6] was 703 nM. It also gave a Ratio IC50 (Homo sapiens [7]) of 1600, a Ratio IC50 (Homo sapiens [8]) of 4880 and an IC50 [9] of 514 nM. It also gave a Ratio IC50 (Homo sapiens [10]) of 1170, an IC50 [11] of 268 nM and a Ratio IC50 (Homo sapiens [12]) of 1600. It also gave an IC50 [13] of 1900 nM, a Ratio IC50 (Homo sapiens [14]) of 4330 and a Ratio IC50 (Homo sapiens [15]) of 227. For the same compound, the IC50 [16] was 1050 nM, the Ratio IC50 (Homo sapiens [17]) was 2380 and the IC50 [18] was 173 nM. The Ratio IC50 (Homo sapiens [19]) was 393, the IC50 [20] was 512 nM and the Ratio IC50 (Homo sapiens [21]) was 1160. It also gave a Ratio IC50 (Homo sapiens [22]) of 234, an IC50 [23] of 428 nM and a Ratio IC50 (Homo sapiens [24]) of 973. For the same compound, the Ratio IC50 (Homo sapiens [25]) was 1060, the IC50 [26] was 266 nM and the Ratio IC50 (Homo sapiens [27]) was 605. It also gave a clearance [28] of 1.4 mL/min/kg, a half-life [29] of 2.3 h and a bioavailability [30] of 87%. The clearance [31] was 4.8 mL/min/kg, the half-life [32] was 3.9 h and the bioavailability [33] was 89%.
